ED50, selectivity ratio and TD50 data for 14 compounds are collected here from ChEMBL document CHEMBL1129697, “Synthesis and anticonvulsant evaluation of a series of (R)- and (S)-N-Cbz--aminoglutarimide and succinimide” (Bioorg Med Chem Lett, 1996).

Series [1] is filed under the species Mus musculus. The experiment in a line: Compound was tested for anticonvulsant activity in male mice using maximal electric shock seizure test. The format is functional.
Series [2] can be described thus: Compound was tested for anticonvulsant activity in male mice using maximal electric shock seizure test.; Protective index = TD50/ED50. The format is ADME. Conditions: mouse, read-out: PI.
For series [3], the system named is Mus musculus. The experiment in a line: Compound was tested for anticonvulsant activity in male mice by pentylenetetrazole (80 mg/kg, sc) induced seizure test. The format is functional.
Series [4] in a line: Compound was tested for anticonvulsant activity in male mice by pentylenetetrazole (80 mg/kg, sc) induced seizure test.; Protective index = TD50/ED50. It is filed as ADME, organism-based. Conditions: mouse, in vivo, read-out: PI.
A short description of series [5]: Compound was tested for neurotoxic activity in male mice using rotarod test. The format is ADME. Conditions: mouse, in vivo. (In general: Falling from the rotarod earlier than controls is read as motor impairment.)
The test system of series [6] is Mus musculus. The experiment in a line: Compound was tested for anticonvulsant activity in male mice by pentylenetetrazole (80 mg/kg, sc) induced seizure test.; No effect. The format is functional, organism-based.
Series [7] in a line: Compound was tested for anticonvulsant activity in male mice using maximal electric shock seizure test; Protective index = TD50/ED50. It is filed as ADME. The conditions noted are these: mouse, read-out: PI.
The species named for series [8] is Mus musculus. The experiment in a line: Compound was tested for anticonvulsant activity in male mice using maximal electric shock seizure test; No effect. It is filed as functional, organism-based.

Activity calls are given as the source filed them. No cut-off for these calls is given here.

With `CN1C(=O)CC[C@@H](NC(=O)OCc2ccccc2)C1=O`, the ED50 in the series listed under Mus musculus [1] was 47.5 mg/kg; with Mus musculus [3] it was 24.4 mg/kg. Further, the figures for the selectivity ratio in series [2] and in series [4] were 2.5 and 4.9, respectively. The TD50 in series [5] worked out at 120 mg/kg.
On to `O=C1NC(=O)C(c2ccccc2)(c2ccccc2)N1`, for which, in the series with Mus musculus [6], the ED50 result is “inactive”.
On to `CN1C(=O)OC(C)(C)C1=O` [TRIMETHADIONE], for which the results for the median effective dose (ED50) in the series listed under Mus musculus [1] and in the series on Mus musculus [3] were 704 mg/kg and 250 mg/kg, respectively. In addition, the results for the selectivity ratio in series [4] and in series [7] were 4.3 and 1.5, respectively. The same compound registered a TD50 in series [5] of 1070 mg/kg.
Regarding `CCCC(CCC)C(=O)O` [VALPROIC ACID], the figures for the ED50 in the series filed under Mus musculus [1] and in the series with Mus musculus [3] were 272 mg/kg and 149 mg/kg, respectively.
With `CN1C(=O)C[C@H](NC(=O)OCc2ccccc2)C1=O`, the ED50 was 61.2 mg/kg in the series filed under Mus musculus [1] and 113 mg/kg in the series on Mus musculus [3]. Further, the selectivity ratio in series [4] stood at 1; in series [7], 1.9. For the same compound, the TD50 in series [5] was 118 mg/kg.
With `CCC1(c2ccccc2)C(=O)NC(=O)NC1=O` [PHENOBARBITAL], the ED50 in the series listed under Mus musculus [1] was determined as 21.8 mg/kg; in the series with Mus musculus [3] it was 13.1 mg/kg.
Compound `CCC1(C)CC(=O)NC1=O` (stereo not drawn) [ETHOSUXIMIDE] came in with an ED50 with Mus musculus [3] of 130 mg/kg. The selectivity ratio in series [4] is 3.4. For the same compound, the ED50 entry in the series filed under Mus musculus [8] was “inactive”.
Consider `O=C1CC[C@H](NC(=O)OCc2ccccc2)C(=O)N1`, for which the ED50 amounted to 43.1 mg/kg in the series listed under Mus musculus [1] and 42.5 mg/kg in the series on Mus musculus [3]. Besides, the selectivity ratio in series [4] came to 3.1; in series [7] it was 3. For the same compound, the TD50 in series [5] worked out at 130 mg/kg.
Consider `O=C1CC[C@@H](NC(=O)OCc2ccccc2)C(=O)N1`, for which the ED50 in the series listed under Mus musculus [1] is 56.3 mg/kg; in the series with Mus musculus [3] it was 46.9 mg/kg. Further, the results for the selectivity ratio in series [4] and in series [7] were 2.6 and 2.2, respectively. In series [5], the TD50 was determined as 122 mg/kg.
As for `CN1C(=O)CC(C)(c2ccccc2)C1=O` (stereo not drawn) [METHSUXIMIDE], the ED50 was 42.6 mg/kg in the series listed under Mus musculus [1] and 34.5 mg/kg in the series on Mus musculus [3]. In addition, the selectivity ratio was 3.7 in series [4] and 3.1 in series [7]. The compound further displayed a TD50 in series [5] of 130 mg/kg.
On to `CN1C(=O)C[C@@H](NC(=O)OCc2ccccc2)C1=O`, for which the ED50 is 52.5 mg/kg in the series filed under Mus musculus [1] and 82.5 mg/kg in the series with Mus musculus [3]. Besides, the results for the selectivity ratio in series [4] and in series [7] were 2 and 3.2, respectively. In series [5], the TD50 was 167 mg/kg.
`CN1C(=O)CC[C@H](NC(=O)OCc2ccccc2)C1=O`: the ED50 in the series filed under Mus musculus [1] was determined as 36.1 mg/kg; in the series on Mus musculus [3], 12.5 mg/kg. Moreover, the selectivity ratio in series [4] came to 5; in series [7], 1.7. This compound also showed a TD50 in series [5] of 62.5 mg/kg.
For `O=C1C[C@H](NC(=O)OCc2ccccc2)C(=O)N1`, in that order: 103 mg/kg, 78.1 mg/kg, 2.1, 1.6 and 161 mg/kg.
For `O=C1C[C@@H](NC(=O)OCc2ccccc2)C(=O)N1`, in that order: 125 mg/kg, 110 mg/kg, 1.6, 1.4 and 178 mg/kg.

The term ED50 denotes the dose that gives a 50% effect, or the effect in half of the subjects. As usually defined, the TD50 is the dose at which the toxic effect under study appears in half of the subjects.
